Results reported in article PMC4804155 (Chembiochem : a European journal of chemical biology, 2015).
Where two headings read alike, the source gives them in different places.

Legend:
[1] = biological target: T1, MOF (male absent on the first, MYST1, HAT8) (Homo sapiens, UniProt Q9H7Z6, I317A); experiment: CPM fluorogenic enzyme kinetics, Km; assay type: biochemical
T1 sequence (Q9H7Z6 174-447 I317A limits assumed): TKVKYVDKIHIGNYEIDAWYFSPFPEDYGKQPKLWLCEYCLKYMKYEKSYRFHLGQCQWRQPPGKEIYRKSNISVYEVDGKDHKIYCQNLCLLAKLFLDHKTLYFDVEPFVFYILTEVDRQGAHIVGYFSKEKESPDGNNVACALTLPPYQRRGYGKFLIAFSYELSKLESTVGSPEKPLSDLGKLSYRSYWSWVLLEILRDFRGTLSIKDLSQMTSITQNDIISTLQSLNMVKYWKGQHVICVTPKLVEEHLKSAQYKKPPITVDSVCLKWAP

[2] = biological target: MOF (male absent on the first, MYST1, HAT8) (Homo sapiens, UniProt Q9H7Z6)
Sequence of MOF (male absent on the first, MYST1, HAT8) (Homo sapiens, UniProt Q9H7Z6) (Q9H7Z6 2-458): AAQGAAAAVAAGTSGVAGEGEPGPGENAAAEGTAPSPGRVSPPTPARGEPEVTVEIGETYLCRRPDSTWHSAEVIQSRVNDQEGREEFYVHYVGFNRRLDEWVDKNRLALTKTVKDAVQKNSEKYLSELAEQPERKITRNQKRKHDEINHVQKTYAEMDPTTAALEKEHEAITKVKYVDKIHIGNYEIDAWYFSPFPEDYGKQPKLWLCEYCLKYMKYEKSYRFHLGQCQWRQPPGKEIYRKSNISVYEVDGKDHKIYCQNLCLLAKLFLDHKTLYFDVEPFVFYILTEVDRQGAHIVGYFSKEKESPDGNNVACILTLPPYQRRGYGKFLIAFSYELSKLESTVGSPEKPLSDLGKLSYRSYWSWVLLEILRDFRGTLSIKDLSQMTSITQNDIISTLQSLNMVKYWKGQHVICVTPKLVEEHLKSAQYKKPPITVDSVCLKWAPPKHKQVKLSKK

[3] = biological target: T1, MOF (male absent on the first, MYST1, HAT8)

Km [2] [µM] | Km [3] [µM] | SMILES | Km [1] [µM]
 |  | CC(C)(COP(=O)(O)OP(=O)(O)OC[C@H]1O[C@@H](n2cnc3c(N)ncnc32)[C@H](O)[C@@H]1OP(=O)(O)O)[C@@H](O)C(=O)NCCC(=O)NCCSC(=O)CCN=[N+]=[N-] [3-azidopropanoyl CoA] | 2.7 ± 0.2
1.3 ± 0.1 | 3.5 ± 0.2 | CC(=O)SCCNC(=O)CCNC(=O)[C@H](O)C(C)(C)COP(=O)(O)OP(=O)(O)OC[C@H]1O[C@@H](n2cnc3c(N)ncnc32)[C@H](O)[C@@H]1OP(=O)(O)O [acetyl-CoA] | 
